Measured values reported in patent publication US10238618B2, “Compositions and methods for diagnosis and treatment of anemia” (The United States of America as represented by the …, priority 2016, dated 2019).

How the values were obtained:
Type in all cases: in vivo, bottlenose dolphin (Tursiops truncatus)
[1] = Serum fatty acid form concentrations (complex lipidomics) in dolphins fed modified diet; conditions: case dolphins fed modified diet (n = 20)
Procedure: (§1) Determination of serum fatty acid concentrations, including a variety of fatty acid classes, were performed by Metabolon, Inc. (Durham, N.C.) using complex lipidomics. Lipids were extracted from samples using dichloromethane and methanol in a modified Bligh-Dyer extraction in the presence of internal standards with the lower, organic, phase being used for analysis. The extracts were concentrated under nitrogen and reconstituted in 0.25 mL of dichloromethane:methanol (50:50) containing 10 mM ammonium acetate. The extracts were placed in vials for infusion-MS analyses, performed on a SelexION equipped Sciex 5500 QTRAP using both positive and negative mode electrospray. Each sample was subjected to 2 analyses, with IMS-MS conditions optimized for lipid classes monitored in each analysis. The 5500 QTRAP was operated in MRM mode to monitor the transitions for over 1,100 lipids from up to 14 lipid classes. Individual lipid species were quantified based on the ratio of signal intensity for target compounds to the signal intensity for an assigned internal standard of known concentration. Lipid class concentrations were calculated from the sum of all molecular species within a class, and fatty acid compositions were determined by calculating the proportion of individual fatty acids within each class. […]

[2] = Total serum fatty acid concentrations in dolphins fed modified diet; conditions: for concentration at 0 month / concentration at 1 month / concentration at 3 month / concentration at 6 month: bottlenose dolphin (Tursiops truncatus), Case dolphins fed modified diet (n = 20); for concentration at 0 month: Month 0 (baseline), 2 h postprandial; for concentration at 1 month: Month 1, 2 h postprandial; for concentration at 3 month: Month 3, 2 h postprandial; for concentration at 6 month: Month 6, 2 h postprandial
Procedure: CV % were typically under 10%.
as §1

[3] = tested on: red blood cell indices; experiment: Stepwise and simple linear regression: serum fatty acids as predictors of red blood cell indices; conditions: Group A dolphins on the modified diet
Procedure: Fatty acids that were independent predictors of red blood cell indices were then tested for linear associations with red blood cell indices using simple linear regressions.

[4] = Serum total fatty acids (% of total fatty acids), MMP dolphins versus wild Sarasota Bay dolphins
Text: Dolphins at the Navy Marine Mammal Program (MMP) are a well-studied dolphin population with regard to chronic diseases and diseases of aging, and this population is more susceptible to anemia (lower packed cell volume and lower hemoglobin) compared to wild dolphins living in Sarasota Bay, Fla. (Table 1). MMP dolphins also have lower total serum odd chain saturated fatty acids and lower very long even chain saturated fatty acids compared to Sarasota Bay dolphins (Table 1, See also Venn-Watson et al. (2016) Increased dietary intake of saturated fatty acid heptadecanoic acid (C17:0) associated with decreasing ferritin and alleviated metabolic syndrome in dolphins. […] Proposed risk factors for anemia in MMP dolphins can include advanced age, chronic disease, and diet (see Venn-Watson S, Smith C R, Gomez F, Jensen E D (2011) Physiology of aging among healthy, older bottlenose dolphins (Tursiops truncatus): comparisons with aging humans. J Comp Phys B 181:667-680). It can be hypothesized that differences in dietary fish (and differences in certain fatty acids associated with particular types of fish) can be responsible for the risk of anemia.

[5] = wild Sarasota Bay Dolphins (n = 19)

Compound | Serum concentrations of fatty acid forms ([1]; Month 0 (baseline)) [µM] | Serum concentrations of fatty acid forms ([1]; Month 1) [µM] | Serum concentrations of fatty acid forms ([1]; Month 3) [µM] | Serum concentrations of fatty acid forms ([1]; Month 6) [µM] | further results
CCCCCCCCCCCCCCCCC(=O)O[C@H]1CC[C@@]2(C)C(=CC[C@H]3[C@@H]4CC[C@H]([C@H](C)CCCC(C)C)[C@@]4(C)CC[C@@H]32)C1 [C17:0 CE] | 14 ± 4 | 18 ± 7 | 20 ± 8 | 21 ± 9 | 
CCCCCCCCCCCCCCC(=O)O [C15:0, pentadecanoic acid] |  |  |  |  | concentration at 0 month ([2]; serum, oral): 35 ± 9 µM; concentration at 1 month ([2]; serum, oral): 94 ± 33 µM; concentration at 3 month ([2]; serum, oral): 111 ± 29 µM; concentration at 6 month ([2]; serum, oral): 101 ± 29 µM; Increased serum concentration as independent, linear predictor of red blood cell indices [3]: independently predicted higher hematocrit, higher packed cell volume, higher hemoglobin, and higher red blood cell counts; Serum fatty acid (%) ([4]; MMP Dolphins (n = 30)): 0.3 ± 0.1%; Serum fatty acid (%) [4, 5]: 1.1 ± 0.4%
CCCCCCCCCCCCCCCCCCCCCC(=O)O [C22:0, behenic acid] |  |  |  |  | concentration at 0 month ([2]; in vivo): 23 ± 4 µM; concentration at 1 month ([2]; in vivo): 21 ± 3 µM; concentration at 3 month ([2]; in vivo): 23 ± 3 µM; concentration at 6 month ([2]; in vivo): 24 ± 5 µM; Serum fatty acid (%) ([4]; MMP Dolphins (n = 30)): 0.2 ± 0.04%; Serum fatty acid (%) [4, 5]: 0.7 ± 0.2%
CCCCCCCCCCCCCCCCCCCCCCCCCC(=O)O [C26:0] |  |  |  |  | Change of total serum concentration versus Month 0 ([2]; in vivo): increased
CCCCCCCCCCCCCC(=O)O [C14:0, myristic acid] |  |  |  |  | concentration at 0 month ([2]; serum, oral): 243 ± 63 µM; concentration at 1 month ([2]; serum, oral): 195 ± 50 µM; concentration at 3 month ([2]; serum, oral): 226 ± 46 µM; concentration at 6 month ([2]; serum, oral): 206 ± 33 µM
CCCCCCCCCCCCCCCCCCCCCCCC(=O)O [C24:0] |  |  |  |  | Serum fatty acid (%) ([4]; MMP Dolphins (n = 30)): 0.1 ± 0.0%; Serum fatty acid (%) [4, 5]: 0.5 ± 0.1%
CCCCCCCCCCCCC/C=C/[C@@H](O)[C@H](CO)NC(=O)CCCCCCCCCCCCCCCCCCCCC [C22:0 CER] | 0.19 ± 0.04 | 0.23 ± 0.05 | 0.26 ± 0.07 | 0.25 ± 0.06 | 
CCCCCCCCCCCCCCCCCCCC(=O)O [C20:0] |  |  |  |  | Serum fatty acid (%) ([4]; MMP Dolphins (n = 30)): 0.9 ± 0.2%; Serum fatty acid (%) [4, 5]: 1.5 ± 0.3%
CCCCCCCCCCCCCC(=O)O[C@H]1CC[C@@]2(C)C(=CC[C@H]3[C@@H]4CC[C@H]([C@H](C)CCCC(C)C)[C@@]4(C)CC[C@@H]32)C1 [C14:0 CE] | 126 ± 32 | 86 ± 21 | 93 ± 20 | 92 ± 25 | 
CCCCCCCCCCCCCCC(=O)O [C15:0 FFA] | 3.8 ± 1.3 | 4.2 ± 1.5 | 3.6 ± 0.8 | 3.8 ± 1.3 | 
CCCCCCCCCCCCCCCCCCCC(=O)O [C20:0 FFA] | 6.6 ± 2.5 | 4.4 ± 1.4 | 5.0 ± 2.3 | 17 ± 10 | 
CCCCCCCCCCCCCCCCCCCCCCCC(=O)N[C@@H](CO)[C@H](O)CCCCCCCCCCCCCCC [C24:0 DCER] | 0.07 ± 0.02 | 0.11 ± 0.03 | 0.13 ± 0.05 | 0.12 ± 0.03 | 
CCCCCCCCCCCCCCCC(=O)O [C16:0, palmitic acid] |  |  |  |  | concentration at 0 month ([2]; in vivo): 1440 ± 194 µM; concentration at 1 month ([2]; in vivo): 1370 ± 199 µM; concentration at 3 month ([2]; in vivo): 1500 ± 221 µM; concentration at 6 month ([2]; in vivo): 1450 ± 155 µM; Change of total serum concentration versus Month 0 ([2]; in vivo): either did not change or decreased
CCCCCCCCCCCCC/C=C/[C@@H](O)[C@H](CO)NC(=O)CCCCCCCCCCCCCCCCCCC [C20:0 CER] | 0.50 ± 0.10 | 0.39 ± 0.08 | 0.42 ± 0.08 | 0.41 ± 0.07 | 
CCCCCCCCCCCCCCCCCCCCCC(=O)O[C@H]1CC[C@@]2(C)C(=CC[C@H]3[C@@H]4CC[C@H]([C@H](C)CCCC(C)C)[C@@]4(C)CC[C@@H]32)C1 [C22:0 CE] | 8.5 ± 2.4 | 5.7 ± 1.5 | 5.9 ± 1.5 | 6.3 ± 2.1 | 
CCCCCCCCCCCCCCC(=O)O[C@H]1CC[C@@]2(C)C(=CC[C@H]3[C@@H]4CC[C@H]([C@H](C)CCCC(C)C)[C@@]4(C)CC[C@@H]32)C1 [C15:0 CE] | 22 ± 5 | 61 ± 19 | 66 ± 17 | 64 ± 22 | Increased serum concentration as independent, linear predictor of red blood cell indices [3]: independently predicted improved red blood cell indices
CCCCCCCCCCCCCCCC(=O)O[C@H]1CC[C@@]2(C)C(=CC[C@H]3[C@@H]4CC[C@H]([C@H](C)CCCC(C)C)[C@@]4(C)CC[C@@H]32)C1 [C16:0 CE] | 273 ± 50 | 226 ± 41 | 244 ± 33 | 245 ± 48 | 
CCCCCCCCCCCCCCCCC(=O)O [C17:0, heptadecanoic acid] |  |  |  |  | concentration at 0 month ([2]; serum, oral): 51 ± 9 µM; concentration at 1 month ([2]; serum, oral): 82 ± 21 µM; concentration at 3 month ([2]; serum, oral): 93 ± 23 µM; concentration at 6 month ([2]; serum, oral): 85 ± 15 µM; Increased serum concentration as independent, linear predictor of red blood cell indices [3]: independently predicted higher hematocrit, higher packed cell volume, higher hemoglobin, and higher red blood cell counts; Serum fatty acid (%) ([4]; MMP Dolphins (n = 30)): 0.3 ± 0.1%; Serum fatty acid (%) [4, 5]: 1.3 ± 0.4%
